Reference: PMC9657394, “Purification and Characterization of Bot33: A Non-Toxic Peptide from the Venom of Buthus occitanus tunetanus Scorpion” (Molecules, 2022)

Tests used:
[1] = test system: Shaker IR; experiment: Two-electrode voltage-clamp, Shaker IR expressed in Xenopus laevis oocytes; assay type: cell-based, Drosophila; details: 1 µM, 250-ms depolarization to 0 mV from −90 mV, pH 7.4, 18–22 °C
Description: (§1) For the expression of Kv channels (mammalian rKv1.1, rKv1.2, hKv1.3, rKv1.4, rKv1.5, rKv1.6, and Drosophila Shaker IR) in Xenopus laevis oocytes, the linearized plasmids were transcribed using the T7 or SP6 mMESSAGE-mMACHINE transcription kit (Ambion, Carlsbad, CA, USA). The harvesting of stage V–VI oocytes from anesthetized female Xenopus laevis frog was previously described in compliance with the regulations of the European Union (EU) concerning the welfare of laboratory animals as declared in Directive 2010/63/EU. The use of X. laevis oocytes was approved by the Animal Ethics Committee of the KU Leuven with the license number P186/2019. Oocytes were injected with 50 nl of cRNA at a concentration of 1 ng/nl using a microinjector (Drummond Scientific, Broomall, PA, USA). […]
(§2) Two-electrode voltage-clamp recordings were performed at room temperature (18–22 °C) using a Geneclamp 500 amplifier (Molecular Devices, Downingtown, PA, USA) controlled by a pClamp data acquisition system (Axon Instruments, Union City, CA, USA). Whole-cell currents from oocytes were recorded 1–4 days after injection. […] All data were analyzed using pClamp Clampfit 10.1 (Molecular Devices, Downingtown, PA, USA) and Origin 7.5 software (Originlab, Northampton, MA, USA).

[2] = test system: hKv1.3; experiment: Two-electrode voltage-clamp, Kv1.3 expressed in Xenopus laevis oocytes; assay type: cell-based, mammalian; details: 1 µM, 250-ms depolarization to 0 mV from −90 mV, pH 7.4, 18–22 °C
Description: as §1, §2

[3] = test system: mice; set-up: method as in PMID 1730708; details: ref [22]; cited from earlier work

| Substance | effect on Shaker IR current [1] | effect on Kv1.3 current [2] | LD50 [3] |
| --- | --- | --- | --- |
| ChTx: control toxin tested on Kv1.3 and Shaker IR | completely inhibited the current | completely inhibited the current |  |
| KTX: toxin with LD50 ≈ 24 ng/20 g mice |  |  | ≈ 24 ng/20 g mice |
